Experiments:
BEL-7402 cells = tested on: BEL-7402 cells; design: method as in earlier work; settings: BEL-7402, 48 h; ref [1]; cited from earlier work
c-kit-1 = tested on: c-kit-1; design: method as in earlier work; settings: ref [1], cited from earlier work; for ctDNADC50/c-kit-1DC50: FID selectivity ratio; for c-kit-1DC50: FID
Pu27 / G4-Pu27 DNA = assay: CD spectroscopy; format: binding; design: key to Extent of change at 290―295 nm (%): “—”represents no obvious changes in the peaks; settings: DNA 10 μM, compound 20 μM; for Extent of change at 250―265 nm (%): given with ↓; for Extent of change at 290―295 nm (%): Pu27 (G4-Pu27)
Procedure: We asked whether chiral platinum(II) complexes 4–6 have the ability to bind to G-quadruplex DNA. To address this, FRET assays, CD spectroscopy, G4-FID assays, and fluorescence titration analysis were performed. […] For G4-HTG21, the ^G4DC50 values of complexes 4–6 were 1.23, 1.26 and 0.99 μM, respectively; while, for G4-Pu27, the ^G4DC50 values were 1.01, 0.89, and 0.82 μM, respectively. In addition, the ^ctDNADC50/^G4DC50 ratio of the HTG21 and Pu27 G4s treated with complexes 4–6 was in the range of 50.54-90.65 and 71.56-110.67 folds, respectively. To further evaluate the binding ability of complexes 4–6 to Pu27 and HTG21G4s, CD spectroscopy and fluorescence titration analysis were performed. […] The quenching ability of complexes 4–6 to HTG21 and Pu27 G4 DNA fluorescence can be quantitatively estimated by their respective quenching constant (Kq), which was derived from the Stern-Volmer quenching equation. […] Finally, the selective binding of complexes 4–6 towards G4 DNA was analyzed by FRET-melting assays. […] In contrast, the ΔTm value for the F32T+H20M duplex DNA in the presence of complexes 4–6 was 1.18, 1.34, and 0.78 °C under the same conditions (Figure 4A). Altogether, our data indicated complexes 4–6, especially complex 6, is the best binder to G4 DNA, which caused DNA complex displaying the highest thermodynamic stability.
www.impactjournals.com/oncotarget/ Oncotarget, Supplementary Materials 2017 […]
Supplementary Figure 23: CD spectra of Pu27 DNA (10 μM) in the absence of K+ upon addition of compounds (20 μM).

telomerase = molecular target: T1, telomerase (Homo sapiens, UniProt O14746); assay: TRAP assay (TRAP-silver staining assay); format: biochemical; settings: BEL-7404 cells, 10 μM, 24 h
T1 construct: Each telomerase extract was prepared from BEL-; endogenous in cells; host or cells: BEL-7404 cell extract
T1 sequence (O14746 whole entry): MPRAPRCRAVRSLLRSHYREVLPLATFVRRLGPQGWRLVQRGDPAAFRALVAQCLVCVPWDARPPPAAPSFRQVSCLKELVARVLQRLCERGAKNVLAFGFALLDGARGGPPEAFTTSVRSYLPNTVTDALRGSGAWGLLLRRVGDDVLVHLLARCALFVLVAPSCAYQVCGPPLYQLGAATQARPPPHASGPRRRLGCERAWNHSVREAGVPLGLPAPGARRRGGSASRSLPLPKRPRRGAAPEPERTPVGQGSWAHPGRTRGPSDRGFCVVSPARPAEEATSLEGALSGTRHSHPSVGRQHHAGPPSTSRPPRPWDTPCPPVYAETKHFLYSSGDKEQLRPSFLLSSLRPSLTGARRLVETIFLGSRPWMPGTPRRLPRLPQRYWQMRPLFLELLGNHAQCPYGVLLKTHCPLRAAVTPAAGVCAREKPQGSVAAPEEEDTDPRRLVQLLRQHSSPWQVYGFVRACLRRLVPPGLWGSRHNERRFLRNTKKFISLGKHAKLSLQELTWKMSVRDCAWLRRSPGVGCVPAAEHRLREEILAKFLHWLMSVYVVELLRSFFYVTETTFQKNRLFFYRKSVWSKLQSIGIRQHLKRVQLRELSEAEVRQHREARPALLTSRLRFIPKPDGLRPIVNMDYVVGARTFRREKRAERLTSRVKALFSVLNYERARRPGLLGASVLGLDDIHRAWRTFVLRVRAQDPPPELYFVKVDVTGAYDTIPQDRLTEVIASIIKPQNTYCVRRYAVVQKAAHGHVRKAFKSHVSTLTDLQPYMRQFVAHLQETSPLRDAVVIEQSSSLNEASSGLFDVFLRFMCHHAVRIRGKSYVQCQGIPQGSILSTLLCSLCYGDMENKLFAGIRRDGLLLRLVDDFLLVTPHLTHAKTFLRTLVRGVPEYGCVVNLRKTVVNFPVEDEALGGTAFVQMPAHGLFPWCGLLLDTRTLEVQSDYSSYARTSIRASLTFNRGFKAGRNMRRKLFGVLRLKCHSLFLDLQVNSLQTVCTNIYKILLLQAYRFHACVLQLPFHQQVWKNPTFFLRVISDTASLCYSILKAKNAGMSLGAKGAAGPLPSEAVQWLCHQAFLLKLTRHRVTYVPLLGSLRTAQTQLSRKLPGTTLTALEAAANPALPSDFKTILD
T1 sequence (O60832 whole entry partner): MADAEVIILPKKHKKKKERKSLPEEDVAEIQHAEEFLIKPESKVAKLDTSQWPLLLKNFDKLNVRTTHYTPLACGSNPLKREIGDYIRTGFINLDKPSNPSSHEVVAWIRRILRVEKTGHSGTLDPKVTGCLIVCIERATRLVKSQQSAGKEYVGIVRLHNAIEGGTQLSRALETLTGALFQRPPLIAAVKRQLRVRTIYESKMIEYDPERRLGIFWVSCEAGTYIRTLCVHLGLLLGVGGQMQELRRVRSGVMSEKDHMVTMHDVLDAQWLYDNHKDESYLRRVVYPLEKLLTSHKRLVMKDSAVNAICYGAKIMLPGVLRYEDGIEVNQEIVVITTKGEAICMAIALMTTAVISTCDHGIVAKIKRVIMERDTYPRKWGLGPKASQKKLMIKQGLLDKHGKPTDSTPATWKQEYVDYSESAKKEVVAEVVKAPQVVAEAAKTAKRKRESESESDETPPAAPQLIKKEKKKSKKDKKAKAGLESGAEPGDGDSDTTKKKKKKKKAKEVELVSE
T1 sequence (Q9NPE3 whole entry partner): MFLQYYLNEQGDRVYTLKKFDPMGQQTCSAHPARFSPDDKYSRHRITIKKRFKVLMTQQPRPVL
T1 sequence (Q9NX24 whole entry partner): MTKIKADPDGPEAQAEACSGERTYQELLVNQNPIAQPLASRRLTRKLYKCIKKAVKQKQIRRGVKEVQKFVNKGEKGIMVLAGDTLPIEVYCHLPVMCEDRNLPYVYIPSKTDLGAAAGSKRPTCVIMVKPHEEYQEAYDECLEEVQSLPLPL
T1 sequence (Q9NY12 whole entry partner): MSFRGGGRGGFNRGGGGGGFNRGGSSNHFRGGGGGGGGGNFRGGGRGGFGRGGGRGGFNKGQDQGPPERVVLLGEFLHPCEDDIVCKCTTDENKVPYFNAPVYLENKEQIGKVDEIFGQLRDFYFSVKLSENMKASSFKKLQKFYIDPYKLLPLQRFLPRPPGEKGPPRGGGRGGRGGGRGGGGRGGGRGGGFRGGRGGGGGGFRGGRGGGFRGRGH
T1 sequence (Q9BUR4 whole entry partner): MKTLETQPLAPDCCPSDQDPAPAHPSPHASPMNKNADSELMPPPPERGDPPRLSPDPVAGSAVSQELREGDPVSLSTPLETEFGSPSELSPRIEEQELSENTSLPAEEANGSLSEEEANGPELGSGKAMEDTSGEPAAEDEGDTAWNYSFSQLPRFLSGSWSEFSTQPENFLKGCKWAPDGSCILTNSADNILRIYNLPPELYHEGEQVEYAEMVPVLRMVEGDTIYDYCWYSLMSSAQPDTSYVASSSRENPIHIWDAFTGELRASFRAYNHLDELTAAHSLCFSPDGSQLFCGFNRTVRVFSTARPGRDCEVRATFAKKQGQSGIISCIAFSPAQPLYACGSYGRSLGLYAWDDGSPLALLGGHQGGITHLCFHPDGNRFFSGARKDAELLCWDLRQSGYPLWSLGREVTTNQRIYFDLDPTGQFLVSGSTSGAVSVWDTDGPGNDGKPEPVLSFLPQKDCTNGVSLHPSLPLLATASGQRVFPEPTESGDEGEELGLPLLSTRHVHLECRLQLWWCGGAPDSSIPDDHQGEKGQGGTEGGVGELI
Excerpt: As mentioned above, G4s structures widely exist in telomeres, we therefore monitored the effect of chiral platinum(II) complexes on function and activity of telomerase. To address this, we first determined the effect of complexes 4–6 on the expression of some telomeric DNA-associated proteins. […] We next evaluated the activity of telomerase by TRAP assay.
Apoptosis analysis c-myc antibody, or anti-β-actin primary antibody and the Apoptosis was detected by flow cytometric analysis corresponding secondary antibody were used to detect of annexin V staining. Annexin V-FITC vs PI assay was target protein via standard washing and incubating steps. performed as previously described. Briefly, adherent Senescence induction and selective binding to NEL-7404 cells were harvested and suspended in the G4s by 4–6 in BEL-7404 cells annexin-binding buffer (5×10^5 cells/mL). Then, cells were incubated with annexin V-FITC and PI for 1.0 h at Staining for SA-β-Gal activity was carried out room temperature in the dark and immediately analyzed according to Moore and Chen reports. In brief, by flow cytometry. The data are presented as biparametric After the long-term incubation with complexes 4–6, the dot plots showing PI red fluorescence vs annexin V-FITC growth medium was aspirated and the BEL-7404 cells green fluorescence. were fixed in 2% formaldehyde/0.2% glutaraldehyde for 15.0 min at room temperature. […] Finally, the extraction, RT-PCR, and the selective binding to G4s by BEL-7404 cell cycle was determined with FACS Calibur complexes 4–6 was according to the our previous reported flow cytometer (BD) and analyzed using Cell Quest.
(BDIS) and ModFit LT (Verity Software House, Topsham, ME). Gene expression by a panel of genes for RT-Determination of caspase-3/9 activity by flow qPCR array cytometric analysis Differential expression of telomeres/telomerase-related genes was analyzed using the Telomeres & […]

## O=C(NCC(O)CO)c1cnc2c3c(cccc13)-c1ccccc1C2=O.[Cl-].[Cl-].[Pt+2] (racemic) [ligand 1, R/S-(±)-FOA]
BEL-7402 cells
  IC50: 30.4 ± 1.5 µM
c-kit-1
  ctDNADC50/c-kit-1DC50: 0.96
  c-kit-1DC50: 66.35 µM

## cis-[PtCl2(R-(+)-FOA)] [complex 5]
Pu27 / G4-Pu27 DNA; G4-Pu27 (presence of K+)
  Extent of change at 250―265 nm (%): 57.01%
Pu27 / G4-Pu27 DNA
  Extent of change at 290―295 nm (%): —
Pu27 / G4-Pu27 DNA; Pu27 (absence of K+)
  Extent of change at 250―265 nm (%): 62.63%
telomerase
  inhibitory ratio of telomerase activity: 23.35%

## cis-[PtCl2(S-(–)-FOA)] [complex 6]
Pu27 / G4-Pu27 DNA; G4-Pu27 (presence of K+)
  Extent of change at 250―265 nm (%): 76.23%
Pu27 / G4-Pu27 DNA
  Extent of change at 290―295 nm (%): —
Pu27 / G4-Pu27 DNA; Pu27 (absence of K+)
  Extent of change at 250―265 nm (%): 80.88%
telomerase
  inhibitory ratio of telomerase activity: 67.82%

## O=C(NC[C@@H](O)CO)c1cnc2c3c(cccc13)-c1ccccc1C2=O.[Cl-].[Cl-].[Pt+2] [ligand 2, R-(+)-FOA]
BEL-7402 cells
  IC50: 68.6 ± 0.8 µM
c-kit-1
  ctDNADC50/c-kit-1DC50: < 0.40
  c-kit-1DC50: > 100 µM

## cis-[PtCl2(R/S-(±)-FOA)] [complex 4]
Pu27 / G4-Pu27 DNA; G4-Pu27 (presence of K+)
  Extent of change at 250―265 nm (%): 67.47%
Pu27 / G4-Pu27 DNA
  Extent of change at 290―295 nm (%): —
Pu27 / G4-Pu27 DNA; Pu27 (absence of K+)
  Extent of change at 250―265 nm (%): 72.16%
telomerase
  inhibitory ratio of telomerase activity: 63.03%

## O=C(NC[C@H](O)CO)c1cnc2c3c(cccc13)-c1ccccc1C2=O.[Cl-].[Cl-].[Pt+2] [ligand 3, S-(–)-FOA]
BEL-7402 cells
  IC50: 28.5 ± 2.4 µM
c-kit-1
  ctDNADC50/c-kit-1DC50: 36.66
  c-kit-1DC50: 2.45 µM

Reference: article PMC5617480 (Oncotarget, 2017)
